The values below come from patent US5834453A, “Methods for the manufacture and use of antimicrobial sterol conjugates” (Lehigh University, priority 1997, dated 1998).

Values after ≈ are worked out from the molar mass of the structure shown. “Also recorded” adds a separate entry of the source. Read-outs that look alike come from different tables or passages of the source.

Data set [1] in a line: Hemolytic activity, minimal hemolytic concentration (MHC).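 Also: MCC here is the minimal hemolytic concentration (MHC).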 Format: cell-based, sheep. Particulars: sheep, red blood cells. As to the method:
Hemolytic activity of the squalamine mimics according to the present invention were also studied by incubating sheep red blood cells for 24 hours at 37° C. in saline (final concentration of 0.5%) with or without respective concentrations of the squalamine mimics. The minimal hemolytic concentration (MHC) was determined as the lowest concentration of a mimic that raised visible hemolysis.

Data set [2] deals with S. pneumoniae (6305). In words: MIC, micro-broth dilution. Particulars: Streptococcus pneumoniae, 35° C., 24 hours, read-out: ANTIMICROBIAL ACTIVITY (MIC). In kind it is cell-based. As to the method: (§1) The antimicrobial activity of the compounds according to the present invention were compared with the results obtained for squalamine as reported in Proc. Nat. Acad. Sci. USA 90:1354 (1993), supra, the disclosure of which is incorporated in toto herein. The data reported in the following table is the minimum inhibitory concentration (MIC) required for complete inhibition of microbial growth. The MIC was determined utilizing known micro-broth dilution methods in which inocula of 10^6 /ml of the test organism were incubated in 0.5× trypticase soy broth at 35° C. for 24 hours. MIC's were also tested under various pH conditions, with calcium chloride or magnesium chloride, or with immobilized horse serum.
(§2) The numbers in parentheses contained in the table correspond to accession numbers with the American Type Culture Collection (reference strains were either obtained from the American Type Culture Collection or from the Microbiology Laboratory at Memorial Sloan-Kettering Cancer Center; Bacterial strains were maintained on Columbia 5% sheep blood agar plates, and fungi were maintained on Sabouraud Dextrose agar plates).
On the technique in general: In broth dilution the organism is exposed to a series of concentrations in liquid medium.

Data set [3] concerns P. aeruginosa (2853). Kind of data set: MIC, micro-broth dilution. Particulars: Pseudomonas aeruginosa, 24 h, read-out: ANTIMICROBIAL ACTIVITY (MIC). In kind it is cell-based. As to the method:
as §1, §2

The test system of data set [4] is A. fumigatus (H1120). In words: MIC, micro-broth dilution. Format: cell-based. The conditions noted are these: Aspergillus fumigatus, 35° C., 24 hours, read-out: ANTIMICROBIAL ACTIVITY (MIC). As to the method: as §1, §2
The test system of data set [5] is E. cloacae (13047). Kind of data set: MIC, micro-broth dilution. Format: cell-based. Particulars: Enterobacter cloacae, 35° C., 24 hours, read-out: ANTIMICROBIAL ACTIVITY (MIC). As to the method:
as §1, §2

The subject of data set [6] is P. vulgaris (13315). Kind of data set: MIC, micro-broth dilution. The conditions noted are these: Proteus vulgaris, 35° C., 24 hours, read-out: ANTIMICROBIAL ACTIVITY (MIC). In kind it is cell-based. As to the method:
as §1, §2

Data set [7] relates to S. aureus (25923). Kind of data set: MIC, micro-broth dilution. The conditions noted are these: Staphylococcus aureus, 35° C., 24 hours, read-out: ANTIMICROBIAL ACTIVITY (MIC). Format: cell-based. As to the method: as §1, §2
Data set [8] relates to C. neoformans (M68979). In words: MIC, micro-broth dilution. Format: cell-based. Particulars: Cryptococcus neoformans, 24 h, read-out: ANTIMICROBIAL ACTIVITY (MIC). As to the method: as §1, §2
For data set [9], the system named is S. marcescens (13880). Kind of data set: MIC, micro-broth dilution. Particulars: for MIC: Serratia marcescens, 24 h, read-out: ANTIMICROBIAL ACTIVITY (MIC). In kind it is cell-based. As to the method: as §1, §2
Data set [10] has as its system C. neoformans (90012). Kind of data set: MIC, micro-broth dilution. Format: cell-based. The conditions noted are these: Cryptococcus neoformans, 24 h, read-out: ANTIMICROBIAL ACTIVITY (MIC). As to the method:
as §1, §2

Data set [11] relates to E. coli (25922). In words: MIC, micro-broth dilution. In kind it is cell-based. The conditions noted are these: Escherichia coli, 35° C., 24 hours, read-out: ANTIMICROBIAL ACTIVITY (MIC). As to the method:
as §1, §2

The test system of data set [12] is P. aeruginosa (10145). In words: MIC, micro-broth dilution. The conditions noted are these: Pseudomonas aeruginosa, 35° C., 24 hours, read-out: ANTIMICROBIAL ACTIVITY (MIC). In kind it is cell-based. As to the method:
as §1, §2

Data set [13] concerns S. epidermidis (12228). Kind of data set: MIC, micro-broth dilution. Format: cell-based. The conditions noted are these: Staphylococcus epidermidis, 35° C., 24 hours, read-out: ANTIMICROBIAL ACTIVITY (MIC). As to the method:
as §1, §2

Data set [14] relates to E. faecium (T6480-9). Kind of data set: MIC, micro-broth dilution. In kind it is cell-based. Particulars: Enterococcus faecium, 35° C., 24 hours, read-out: ANTIMICROBIAL ACTIVITY (MIC). As to the method: as §1, §2
Data set [15] concerns S. pyrogenes (19615). In words: MIC, micro-broth dilution. In kind it is cell-based. Particulars: 24 h, read-out: ANTIMICROBIAL ACTIVITY (MIC). As to the method: as §1, §2
Data set [16] concerns E. faecalis (29212). Kind of data set: MIC, micro-broth dilution. In kind it is cell-based. Particulars: Enterococcus faecalis, 35° C., 24 hours, read-out: ANTIMICROBIAL ACTIVITY (MIC). As to the method: as §1, §2
The subject of data set [17] is S. aureus (H20809). In words: MIC, micro-broth dilution. The conditions noted are these: Staphylococcus aureus, read-out: ANTIMICROBIAL ACTIVITY (MIC). Format: cell-based. As to the method: as §1, §2
The subject of data set [18] is C. albicans (90028). Kind of data set: MIC, micro-broth dilution. In kind it is cell-based. Particulars: Candida albicans, 35° C., 24 hours, read-out: ANTIMICROBIAL ACTIVITY (MIC). As to the method:
as §1, §2

Data set [19] deals with S. agalactiae (13813). In words: MIC, micro-broth dilution. In kind it is cell-based. Particulars: Streptococcus agalactiae, 35° C., 24 hours, read-out: ANTIMICROBIAL ACTIVITY (MIC). As to the method: as §1, §2
Data set [20] concerns A. fumigatus (H29709). Kind of data set: MIC, micro-broth dilution. Format: cell-based. The conditions noted are these: Aspergillus fumigatus, 35° C., 24 hours, read-out: ANTIMICROBIAL ACTIVITY (MIC). As to the method: as §1, §2
The subject of data set [21] is K. pneumoniae (13883). In words: MIC, micro-broth dilution. Format: cell-based. The conditions noted are these: Klebsiella pneumoniae, 24 h, read-out: ANTIMICROBIAL ACTIVITY (MIC). As to the method:
as §1, §2

For data set [22], the system named is S. aureus (29213). Kind of data set: MIC, micro-broth dilution. Particulars: Staphylococcus aureus, 24 h, read-out: ANTIMICROBIAL ACTIVITY (MIC). In kind it is cell-based. As to the method:
as §1, §2

For orientation: MIC means the smallest concentration in the dilution series that meets the test's criterion for growth inhibition. In turn, `C[C@H](CCC(=O)NCCCNCCCCNCCCN)[C@H]1CC[C@H]2[C@@H]3CC[C@@H]4C[C@H](OS(=O)(=O)O)CC[C@]4(C)[C@H]3CC[C@]12C` [SM-22] displayed an MCC at 24 h in data set [1] above 100 µg/mL. The MIC in data set [2] was 25 µg/mL (≈ 39 µM); in data set [3], above 100 µg/mL; in [4], above 100 µg/mL; in data set [5], above 100 µg/mL; in data set [6] it was above 100 µg/mL; in data set [7], 1.56 µg/mL (≈ 2.43 µM). In addition, the MIC is 25 µg/mL (≈ 39 µM) in data set [8]; above 100 µg/mL in data set [9]; 25 µg/mL (≈ 39 µM) in data set [10]; above 100 µg/mL in [11]; above 100 µg/mL in data set [12]; 1.56 µg/mL (≈ 2.43 µM) in [13]. The MIC is above 100 µg/mL in data set [14]; 1.56 µg/mL (≈ 2.43 µM) in data set [15]; above 100 µg/mL in data set [16]; 3.13 µg/mL (≈ 4.88 µM) in [17] (24 h); above 100 µg/mL in [18]; above 100 µg/mL in data set [19]. Further, the MIC is above 100 µg/mL in [20], above 100 µg/mL in data set [21] and 1.56 µg/mL (≈ 2.43 µM) in [22].

`C[C@H](CCC(=O)NCCNCCNCCN)[C@H]1CC[C@H]2[C@@H]3CC[C@@H]4C[C@H](O)CC[C@]4(C)[C@H]3CC[C@]12C` [SM-27] returned an MCC at 24 h in data set [1] of 50 µg/mL. Further, the MIC in data set [2] worked out at 3.13 µg/mL (≈ 6.2 µM); in data set [3], 12.5 µg/mL (≈ 24.8 µM); in data set [4], 100 µg/mL (≈ 198 µM); in [5], 25 µg/mL (≈ 49.5 µM); in data set [6], 12.5 µg/mL (≈ 24.8 µM); in data set [7], 6.25 µg/mL (≈ 12.4 µM). Besides, the MIC in data set [8] is 3.13 µg/mL (≈ 6.2 µM); in data set [9], 12.5 µg/mL (≈ 24.8 µM); in [10] it was 3.13 µg/mL (≈ 6.2 µM); in [11], 3.13 µg/mL (≈ 6.2 µM); in data set [12], 25 µg/mL (≈ 49.5 µM); in data set [13] it was 3.13 µg/mL (≈ 6.2 µM). Besides, the MIC in data set [14] amounted to 12.5 µg/mL (≈ 24.8 µM); in data set [15] it was 1.56 µg/mL (≈ 3.09 µM); in data set [16], 12.5 µg/mL (≈ 24.8 µM); in data set [17] (24 h), 6.25 µg/mL (≈ 12.4 µM); in [18], 25 µg/mL (≈ 49.5 µM); in [19], 3.13 µg/mL (≈ 6.2 µM). The MIC was 100 µg/mL (≈ 198 µM) in [20], 6.25 µg/mL (≈ 12.4 µM) in [21] and 6.25 µg/mL (≈ 12.4 µM) in data set [22]. In addition, in data set [9] (in words), the “activity against S. marcescens” value is given as “found even against S. marcescens; also recorded: effective against S. marcescens”.

Molecule `C[C@H](CCC(=O)NCCNCCNCCN)[C@H]1CC[C@H]2[C@@H]3C[C@H](O)[C@@H]4C[C@H](O)CC[C@]4(C)[C@H]3CC[C@]12C` [SM-32] gave an MCC at 24 h in [1] above 100 µg/mL. Moreover, the MIC was 25 µg/mL (≈ 48 µM) in data set [2]; 25 µg/mL (≈ 48 µM) in data set [3]; 50 µg/mL (≈ 96 µM) in data set [4]; above 100 µg/mL in data set [5]; 50 µg/mL (≈ 96 µM) in [6]; 25 µg/mL (≈ 48 µM) in [7]. In addition, the MIC is 25 µg/mL (≈ 48 µM) in data set [8]; above 100 µg/mL in data set [9]; 25 µg/mL (≈ 48 µM) in [10]; 25 µg/mL (≈ 48 µM) in data set [11]; 50 µg/mL (≈ 96 µM) in data set [12]; 25 µg/mL (≈ 48 µM) in [13]. For the same molecule, the MIC in [14] amounted to 100 µg/mL (≈ 192 µM); in data set [15], 12.5 µg/mL (≈ 24 µM); in data set [16], 100 µg/mL (≈ 192 µM); in [17] (24 h), 25 µg/mL (≈ 48 µM); in [18], 25 µg/mL (≈ 48 µM); in [19], 25 µg/mL (≈ 48 µM). Moreover, the MIC in data set [20] came out at 50 µg/mL (≈ 96 µM); in data set [21], 50 µg/mL (≈ 96 µM); in [22], 25 µg/mL (≈ 48 µM).

Regarding `C[C@H](CCC(=O)NCCCNCCCCNCCCN)[C@H]1CC[C@H]2[C@@H]3[C@H](OS(=O)(=O)O)C[C@@H]4C[C@H](OS(=O)(=O)O)CC[C@]4(C)[C@H]3CC[C@]12C` [SM-35], the MCC at 24 h in [1] amounted to 6.25 µg/mL. For the same molecule, the MIC in data set [2] amounted to 3.13 µg/mL (≈ 4.25 µM); in [3], 12.5 µg/mL (≈ 17 µM); in [4] it was 25 µg/mL (≈ 33.9 µM); in data set [5] it was 12.5 µg/mL (≈ 17 µM); in [6], 25 µg/mL (≈ 33.9 µM); in [7] it was 6.25 µg/mL (≈ 8.48 µM). In addition, the MIC in data set [8] is 12.5 µg/mL (≈ 17 µM); in data set [9], above 100 µg/mL; in data set [10] it was 12.5 µg/mL (≈ 17 µM); in data set [11] it was 6.25 µg/mL (≈ 8.48 µM); in data set [12] it was 25 µg/mL (≈ 33.9 µM); in data set [13], 3.13 µg/mL (≈ 4.25 µM). For the same molecule, the MIC worked out at 6.25 µg/mL (≈ 8.48 µM) in data set [14]; 3.13 µg/mL (≈ 4.25 µM) in data set [15]; 6.25 µg/mL (≈ 8.48 µM) in [16]; 8.25 µg/mL (≈ 11.2 µM) in data set [17] (S. aureus (H20809), 35° C., 24 hours); 25 µg/mL (≈ 33.9 µM) in data set [18]; 6.25 µg/mL (≈ 8.48 µM) in data set [19]. For the same molecule, the MIC in data set [20] came out at 25 µg/mL (≈ 33.9 µM); in data set [21], 12.5 µg/mL (≈ 17 µM); in data set [22] it was 6.25 µg/mL (≈ 8.48 µM).
